From US20250041429A1, “COMPOUND HAVING BTK PROTEIN DEGRADATION ACTIVITY, AND MEDICAL USES THEREOF” (UBIX THERAPEUTICS, INC., priority 2021, published 2025)

Target: T1, BTK protein (Homo sapiens, UniProt Q06187)
T1 construct: endogenous in cells; host or cells: TMD-8 cells
Experiment: Measurement of BTK protein degradation ability in TMD-8 cells (Western blotting)
Assay type: cell-based
Conditions: harvested after 24 hours; for BTK degradation (%) 1 nM: compound 1 nM; for BTK degradation (%) 10 nM: compound 10 nM; for BTK degradation (%) 100 nM: compound 100 nM
Outline: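 BTK levels were measured by immunoblotting of equal-protein RIPA lysates, normalized to GAPDH or β-actin, with chemiluminescent or infrared detection. Lysates came from TMD-8 cells exposed to compound for 24 h at final concentrations of 0.1, 1, 10 μM or 0.0001–0.1 μM, against a DMSO control.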

T1 sequence (Q06187 whole entry): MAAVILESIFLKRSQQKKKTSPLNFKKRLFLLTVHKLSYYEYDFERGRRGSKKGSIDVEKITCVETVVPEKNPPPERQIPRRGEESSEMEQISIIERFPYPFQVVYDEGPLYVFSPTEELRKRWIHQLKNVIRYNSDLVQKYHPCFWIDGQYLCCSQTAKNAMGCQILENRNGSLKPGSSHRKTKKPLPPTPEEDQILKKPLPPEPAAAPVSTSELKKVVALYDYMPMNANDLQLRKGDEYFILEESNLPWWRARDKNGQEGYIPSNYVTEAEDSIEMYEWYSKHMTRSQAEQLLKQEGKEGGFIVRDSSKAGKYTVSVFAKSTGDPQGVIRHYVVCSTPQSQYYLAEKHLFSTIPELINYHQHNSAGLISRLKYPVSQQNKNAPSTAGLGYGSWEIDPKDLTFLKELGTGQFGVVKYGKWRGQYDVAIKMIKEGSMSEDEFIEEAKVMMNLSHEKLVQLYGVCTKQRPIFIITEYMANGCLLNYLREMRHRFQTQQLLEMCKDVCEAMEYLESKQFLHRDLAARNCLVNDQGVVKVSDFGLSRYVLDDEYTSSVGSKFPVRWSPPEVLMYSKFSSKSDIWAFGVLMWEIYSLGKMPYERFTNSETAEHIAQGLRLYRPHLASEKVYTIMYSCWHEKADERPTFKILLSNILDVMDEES

| Compound | BTK degradation (%) 1 nM | BTK degradation (%) 10 nM | BTK degradation (%) 100 nM |
| --- | --- | --- | --- |
| Cc1cc(-c2ccnc(Nc3ccc(N4CCN(CC5CCN(c6ccc(NC7CCC(=O)NC7=O)cc6F)CC5)CC4)cc3)n2)ccc1CNC(=O)c1cn(C(C)(C)C)nn1 (stereo not drawn) [Example 72, 1-(tert-butyl)-N-(4-(2-((4-(4-((1-(4-((2,6-dioxopiperidin-3-yl)amino)-2-fluorophenyl)piperidin-4-yl)methyl)piperazin-1-yl)phenyl)amino)pyrimidin-4-yl)-2-methylbenzyl)-1H-1,2,3-triazole-4-carboxamide] | 62.5% | 95.5% | 99.0% |
| Cc1cc(-c2ccnc(Nc3ccc(N4CCN(CC5CCN(c6cccc(N7CCC(=O)NC7=O)c6)CC5)CC4)nc3)n2)ccc1CNC(=O)c1cn(C(C)(C)C)nn1 [Example 76] | 55.0% | 96.5% | 100.0% |
| Cc1cc(-c2ccnc(Nc3ccc(N4CCN(CC5CCN(c6ccc(N7CCC(=O)NC7=O)cc6)CC5)CC4)nc3)n2)ccc1CNC(=O)c1cn(C(C)(C)C)nn1 [Example 77] | 57.5% | 96.0% | 99.5% |
| Cc1cc(-c2ccnc(Nc3ccc(N4CCN(CC5CCN(c6cccc(N7CCC(=O)NC7=O)c6)CC5)CC4)cc3)n2)ccc1CNC(=O)c1cnn(C(C)(C)C)c1 [Example 81, 1-(tert-butyl)-N-(4-(2-((4-(4-((1-(3-(2,4-dioxotetrahydropyrimidin-1 (2H)-yl)phenyl)piperidin-4-yl)methyl)piperazin-1-yl)phenyl)amino)pyrimidin-4-yl)-2-methylbenzyl)-1H-pyrazole-4-carboxamide] | 65.0% | 97.0% | 99.5% |
| Cc1cc(-c2ccnc(Nc3ccc(N4CCN(CC5CCN(c6cccc(N7CCC(=O)NC7=O)c6)CC5)CC4)nc3)n2)ccc1CNC(=O)c1cnn(C(C)C)c1 [Example 82, N-(4-(2-((6-(4-((1-(3-(2,4-dioxotetrahydropyrimidin-1 (2H)-yl)phenyl)piperidin-4-yl)methyl)piperazin-1-yl)pyridin-3-yl)amino)pyrimidin-4-yl)-2-methylbenzyl)-1-isopropyl-1H-pyrazole-4-carboxamide] | 32.0% | 87.5% | 99.5% |
| Cc1cc(-c2ccnc(Nc3ccc(N4CCN(CC5CCN(c6cccc(N7CCC(=O)NC7=O)c6)CC5)CC4)nc3)n2)ccc1CNC(=O)c1cnn(C(C)(C)C)c1 [Example 83, 1-(tert-butyl)-N-(4-(2-((6-(4-((1-(3-(2,4-dioxotetrahydropyrimidin-1 (2H)-yl)phenyl)piperidin-4-yl)methyl)piperazin-1-yl)pyridin-3-yl)amino)pyrimidin-4-yl)-2-methylbenzyl)-1H-pyrazole-4-carboxamide] | 51.0% | 96.5% | 99.5% |
| Cc1cc(-c2ccnc(Nc3ccc(C4CCN(CC5CCN(c6cccc(N7CCC(=O)NC7=O)c6)CC5)CC4)cc3)n2)ccc1CNC(=O)c1cnn(C(C)C)c1 [Example 84, N-(4-(2-((4-(1-((1-(3-(2,4-dioxotetrahydropyrimidin-1 (2H)-yl)phenyl)piperidin-4-yl)methyl)piperidin-4-yl)phenyl)amino)pyrimidin-4-yl)-2-methylbenzyl)-1-isopropyl-1H-pyrazole-4-carboxamide] | 36.0% | 92.0% | 99.0% |
| Cc1cc(-c2ccnc(Nc3ccc(N4CCN(CC5CN(C(=O)c6cccc(NC7CCC(=O)NC7=O)c6)C5)CC4)cc3)n2)ccc1CNC(=O)N1CC(OC(C)C)C1 (stereo not drawn) [Example 88, N-(4-(2-((4-(4-((1-(3-((2,6-dioxopiperidin-3-yl)amino)benzoyl)azetidin-3-yl)methyl)piperazin-1-yl)phenyl)amino)pyrimidin-4-yl)-2-methylbenzyl)-3-isopropoxyazetidine-1-carboxamide] | 35.5% | 94.5% | 98.5% |
| Cc1cc(-c2ccnc(Nc3ccc(N4CCN(CC5CCN(C(=O)c6cccc(N7CCC(=O)NC7=O)c6)CC5)CC4)cc3)n2)ccc1CNC(=O)N1CC(OC(C)C)C1 [Example 89, N-(4-(2-((4-(4-((1-(3-(2,4-dioxotetrahydropyrimidin-1 (2H)-yl)benzoyl)piperidin-4-yl)methyl)piperazin-1-yl)phenyl)amino)pyrimidin-4-yl)-2-methylbenzyl)-3-isopropoxyazetidine-1-carboxamide] | −0.5% | 33% | 87% |

The remaining lines, values ahead:

| BTK degradation (%) 1 nM | BTK degradation (%) 10 nM | BTK degradation (%) 100 nM | Compound |
| --- | --- | --- | --- |
| 43.0% | 91.5% | 97.0% | Cc1cc(-c2ccnc(Nc3ccc(N4CCN(CC5CCN(c6ccc(N7CCC(=O)NC7=O)cc6F)CC5)CC4)cc3)n2)ccc1CNC(=O)c1cn(C(C)(C)C)nn1 [Example 73] |
| 43.0% | 91.5% | 96.5% | Cc1cc(-c2ccnc(Nc3ccc(CN4CCN(CC5CCN(c6cccc(N7CCC(=O)NC7=O)c6)CC5)CC4)cc3)n2)ccc1CNC(=O)c1cn(C(C)(C)C)nn1 [Example 74, 1-(tert-butyl)-N-(4-(2-((4-((4-((1-(3-(2,4-dioxotetrahydropyrimidin-1 (2H)-yl)phenyl)piperidin-4-yl)methyl)piperazin-1-yl)methyl)phenyl)amino)pyrimidin-4-yl)-2-methylbenzyl)-1H-1,2,3-triazole-4-carboxamide] |
| 14.0% | 87.0% | 98.0% | Cc1cc(-c2ccnc(Nc3ccc(CN4CCN(CC5CCN(c6ccc(N7CCC(=O)NC7=O)cc6)CC5)CC4)cc3)n2)ccc1CNC(=O)c1cn(C(C)(C)C)nn1 [Example 75, 1-(tert-butyl)-N-(4-(2-((4-((4-((1-(4-(2,4-dioxotetrahydropyrimidin-1 (2H)-yl)phenyl)piperidin-4-yl)methyl)piperazin-1-yl)methyl)phenyl)amino)pyrimidin-4-yl)-2-methylbenzyl)-1H-1,2,3-triazole-4-carboxamide] |
| 43.5% | 93.5% | 99.0% | Cc1cc(-c2ccnc(Nc3ccc(C4CCN(CC5CCN(c6cccc(N7CCC(=O)NC7=O)c6)CC5)CC4)cc3)n2)ccc1CNC(=O)c1cn(C(C)(C)C)nn1 [Example 78, 1-(tert-butyl)-N-(4-(2-((4-(1-((1-(3-(2,4-dioxotetrahydropyrimidin-1 (2H)-yl)phenyl)piperidin-4-yl)methyl)piperidin-4-yl)phenyl)amino)pyrimidin-4-yl)-2-methylbenzyl)-1H-1,2,3-triazole-4-carboxamide] |
| 26.0% | 92.5% | 98.0% | Cc1cc(-c2ccnc(Nc3ccc(C4CCN(CC5CCN(c6ccc(N7CCC(=O)NC7=O)cc6)CC5)CC4)cc3)n2)ccc1CNC(=O)c1cn(C(C)(C)C)nn1 [Example 79, 1-(tert-butyl)-N-(4-(2-((4-(1-((1-(4-(2,4-dioxotetrahydropyrimidin-1 (2H)-yl)phenyl)piperidin-4-yl)methyl)piperidin-4-yl)phenyl)amino)pyrimidin-4-yl)-2-methylbenzyl)-1H-1,2,3-triazole-4-carboxamide] |
| 73.5% | 98.0% | 99.5% | Cc1cc(-c2ccnc(Nc3ccc(N4CCN(CC5CCN(c6cccc(N7CCC(=O)NC7=O)c6)CC5)CC4)cc3)n2)ccc1CNC(=O)c1cnn(C(C)C)c1 [Example 80, N-(4-(2-((4-(4-((1-(3-(2,4-dioxotetrahydropyrimidin-1 (2H)-yl)phenyl)piperidin-4-yl)methyl)piperazin-1-yl)phenyl)amino)pyrimidin-4-yl)-2-methylbenzyl)-1-isopropyl-1H-pyrazole-4-carboxamide] |
| 45.5% | 93.5% | 98.5% | Cc1cc(-c2ccnc(Nc3ccc(C4CCN(CC5CCN(c6cccc(N7CCC(=O)NC7=O)c6)CC5)CC4)cc3)n2)ccc1CNC(=O)c1cnn(C(C)(C)C)c1 [Example 85, 1-(tert-butyl)-N-(4-(2-((4-(1-((1-(3-(2,4-dioxotetrahydropyrimidin-1 (2H)-yl)phenyl)piperidin-4-yl)methyl)piperidin-4-yl)phenyl)amino)pyrimidin-4-yl)-2-methylbenzyl)-1H-pyrazole-4-carboxamide] |
| 22% | 90% | 97.5% | COc1ccc(C(=O)N2CCC(CN3CCN(c4ccc(Nc5nccc(-c6ccc(CNC(=O)N7CC(OC(C)C)C7)c(C)c6)n5)cc4)CC3)CC2)cc1N1CCC(=O)NC1=O [Example 86, N-(4-(2-((4-(4-((1-(3-(2,4-dioxotetrahydropyrimidin-1 (2H)-yl)-4-methoxybenzoyl)piperidin-4-yl)methyl)piperazin-1-yl)phenyl)amino)pyrimidin-4-yl)-2-methylbenzyl)-3-isopropoxyazetidine-1-carboxamide] |
| 36.5% | 94.5% | 98.5% | Cc1cc(-c2ccnc(Nc3ccc(N4CCN(CC5CCN(C(=O)c6cccc(NC7CCC(=O)NC7=O)c6)CC5)CC4)cc3)n2)ccc1CNC(=O)N1CC(OC(C)C)C1 (stereo not drawn) [Example 87, N-(4-(2-((4-(4-((1-(3-((2,6-dioxopiperidin-3-yl)amino)benzoyl)piperidin-4-yl)methyl)piperazin-1-yl)phenyl)amino)pyrimidin-4-yl)-2-methylbenzyl)-3-isopropoxyazetidine-1-carboxamide] |
